Patent US20240209028A1, “CNP COMPOUNDS” (priority 2022, published 2024)
≈ marks a conversion by molar mass, not a printed value. Like-named read-outs stand apart in the source and are kept apart here. Starred links: 1 amine or outer side, 2 acyl side, 3 side chain; linkers in the order of their positions; H or OH if unused. Positions of bridges follow the written chain, without caps; N, C: chain ends. Residues, ends and D or L forms follow the SMILES beside them. *: point of attachment. C18 diacid = O=C(O)CCCCCCCCCCCCCCCCC(=O)*; γGlu = O=C(O)[C@H](CCC(=O)[*:2])N[*:1]; AEEA = NCCOCCOCC(=O)O

Experiments:
[1] = Solubility of CNP compounds at pH 4.0 and pH 6.5; type: physicochemical
Summary of the method: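 Freeze-dried peptide was brought to a nominal ≥4000-5000 nmol/mL in 5 mM sodium acetate, 250 mM glycerol (pH 4.0) or in 8 mM sodium phosphate, 23 mg/mL glycerol (pH 6.5 via NaOH titration). Samples were equilibrated at room temperature overnight if undissolved, and supernatant concentration was measured by CAD.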

[2] = PK of CNP compounds after i.v. and s.c. administration to rats; conditions: male, Sprague Dawley, in vivo, iv, rat, i.v., about 100 nmol/kg; for clearance: read-out: Cl (L/hr/kg), i.v. administration (converted); for half-life: read-out: T½ (hr), i.v. administration (converted)
Summary of the method: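 Male Sprague Dawley rats (n=4-6) were dosed at 300 nmol/kg s.c. or 100 nmol/kg i.v., formulated at pH 7.4 or 4.0, and sampled up to 72 h. Plasma levels were measured by TF-LC-MS against calibrators from 0.5 to 2000 nM. Non-compartmental PK used dose-normalized AUC for bioavailability, with values given as means.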

| SMILES | solubility ([1]; 8 mM sodium phosphate, 23 mg/mL glycerol, pH 6.5, room temperature, read-out: Solubility at pH 6.5) | clearance [2] | half-life [2] | solubility ([1]; 5 mM sodium acetate, 250 mM glycerol, pH 4.0, room temperature, read-out: Solubility at pH 4.0) |
| --- | --- | --- | --- | --- |
| CC[C@H](C)[C@@H]1NC(=O)[C@H](CCCNC(=N)N)NC(=O)[C@H](CC(=O)O)NC(=O)[C@H](CC(C)C)NC(=O)[C@@H]2CCCN2C(=O)[C@H](CC(C)C)NC(=O)CNC(=O)[C@H](Cc2ccccc2)NC(=O)[C@@H](NC(=O)CNC(=O)[C@H](CO)NC(=O)[C@H](CO)NC(=O)[C@H](CC(C)C)NC(=O)CNC(=O)[C@H](CCCCN)NC(=O)[C@H](CCCCN)NC(=O)[C@H](CCC(N)=O)NC(=O)[C@H](C)NC(=O)CNC(=O)[C@H](CCC(=O)O)NC(=O)[C@H](Cc2ccc(O)cc2)NC(=O)COCCOCCNC(=O)COCCOCCNC(=O)COCCOCCNC(=O)COCCOCCNC(=O)CC[C@H](NC(=O)CCCCCCCCCCCCCCCCC(=O)O)C(=O)O)CSSC[C@@H](C(=O)O)NC(=O)CNC(=O)[C@H](CC(C)C)NC(=O)CNC(=O)[C@H](CO)NC(=O)[C@H](CC(C)C)NC(=O)[C@H](CO)NC(=O)CNC1=O [compound 1392] ({C18 diacid-γGlu-AEEA-AEEA-AEEA-AEEA}-YEGAQKKGLSSGCFGLPLDRIGSLSGLGC-OH; disulfide 13-29) | 9.88 mM (≈ 38.7 mg/mL) | 0.00799 L/h/kg | 5.72 h | – |
| CC[C@H](C)[C@@H]1NC(=O)[C@H](CCCNC(=N)N)NC(=O)[C@H](CC(=O)O)NC(=O)[C@H](CC(C)C)NC(=O)[C@@H]2CCCN2C(=O)[C@H](CC(C)C)NC(=O)CNC(=O)[C@H](Cc2ccccc2)NC(=O)[C@@H](NC(=O)CNC(=O)[C@H](CCC(N)=O)NC(=O)[C@H](CO)NC(=O)[C@H](CO)NC(=O)CNC(=O)[C@H](Cc2c[nH]cn2)NC(=O)[C@H](Cc2c[nH]cn2)NC(=O)[C@H](CCC(N)=O)NC(=O)[C@H](C)NC(=O)CNC(=O)[C@H](Cc2c[nH]cn2)NC(=O)[C@H](Cc2ccc(O)cc2)NC(=O)[C@H](CCCCN)NC(=O)[C@H](Cc2c[nH]cn2)NC(=O)[C@H](C)NC(=O)[C@H](CCC(N)=O)NC(=O)[C@@H]2CCCN2C(=O)[C@H](Cc2c[nH]cn2)NC(=O)[C@H](CCC(=O)O)NC(=O)[C@H](CCC(N)=O)NC(=O)COCCOCCNC(=O)COCCOCCNC(=O)CC[C@H](NC(=O)CCCCCCCCCCCCCCCCC(=O)O)C(=O)O)CSSC[C@@H](C(=O)O)NC(=O)CNC(=O)[C@H](CC(C)C)NC(=O)CNC(=O)[C@H](CO)NC(=O)[C@H](CC(C)C)NC(=O)[C@H](CO)NC(=O)CNC1=O [compound 1381] ({C18 diacid-γGlu-AEEA-AEEA}-QEHPQAHKYHGAQHHGSSQGCFGLPLDRIGSLSGLGC-OH; disulfide 21-37) | – | 0.00382 L/h/kg | 15.2 h | 9 mM (≈ 41.6 mg/mL) |
